Reference: ChEMBL document CHEMBL1136072, “Structural features of piperazinyl-linked ciprofloxacin dimers required for activity against drug-resistant strains of Staphylococcus aureus” (2003)

Assays:
Format in all cases: functional
Staphylococcus aureus [1] = assay: Minimum inhibitory concentration required against Staphylococcus aureus SA 1199B, constitutively overexpresses norA and harbors a topoisomerase IV A subunit substitution (A116E); parameters: unit not given beside the values
Staphylococcus aureus [2] = assay: Minimum inhibitory concentration required against Staphylococcus aureus GISA 992, vancomycin-insensitive SA.
Staphylococcus aureus [3] = assay: Minimum inhibitory concentration required against Staphylococcus aureus SA 1199-3, laboratory-derived mutant of SA 1199 that inducibly overexpresses norA, no gyrase or topoisomerase IV mutations
Staphylococcus aureus [4] = assay: Minimum inhibitory concentration required against Staphylococcus aureus SA-1199, wild-type isolate
Staphylococcus aureus [5] = assay: Minimum inhibitory concentration required against Staphylococcus aureus MRSA 494, methicillin resistant SA isolate

SMILES | MIC (Staphylococcus aureus [1]) | MIC (Staphylococcus aureus [2]) | MIC (Staphylococcus aureus [3]) | MIC (Staphylococcus aureus [4]) | MIC (Staphylococcus aureus [5])
O=C(O)c1cn(C2CC2)c2cc(N3CCN(Cc4ccc(CN5CCN(c6cc7c(cc6F)c(=O)ccn7C6CC6)CC5)cc4)CC3)c(F)cc2c1=O | 0.5 | >16 | 0.5 | 0.25 | 1
O=C(O)c1cn(C2CC2)c2cc(N3CCN(/C=C/CN4CCN(c5cc6c(cc5F)c(=O)c(C(=O)O)cn6C5CC5)CC4)CC3)c(F)cc2c1=O | – | >16 | 0.06 | 0.03 | 0.125
CN1CCN(c2cc3c(cc2F)c(=O)ccn3C2CC2)CC1 | >16 | >16 | >16 | >16 | >16
O=C(O)c1cn(C2CC2)c2cc(N3CCN(Cc4ccc(CN5CCN(c6ccccc6F)CC5)cc4)CC3)c(F)cc2c1=O | – | 16 | – | 0.5 | –
O=C(O)c1cn(C2CC2)c2cc(N3CCN(Cc4ccc(CN5CCN(c6cc7c(cc6F)c(=O)c(C(=O)O)cn7C6CC6)CC5)cc4)CC3)c(F)cc2c1=O | – | 4 | – | 0.125 | –
CCn1cc(C(=O)O)c(=O)c2cnc(N3CCNCC3)nc21 [PIPEMIDIC ACID] | – | >16 | – | >16 | –
O=C(O)c1cn(C2CC2)c2cc(N3CCN(/C=C/CN4CCN(c5ccccc5F)CC4)CC3)c(F)cc2c1=O | – | >16 | – | 0.5 | –
CN1CCN(c2cc3c(cc2F)c(=O)c(C(=O)O)cn3C2CC2)CC1 | 8 | 32 | 1 | 0.125 | 0.5
O=C(O)c1cn(C2CC2)c2cc(N3CCN(Cc4ccc(CN5CCNCC5)cc4)CC3)c(F)cc2c1=O | 1 | >16 | – | 0.5 | 0.25
O=C(O)c1cn(C2CC2)c2cc(N3CCN(/C=C/CN4CCNCC4)CC3)c(F)cc2c1=O | 2 | >16 | 2 | 1 | 2
CCn1cc(C(=O)O)c(=O)c2cnc(N3CCN(Cc4ccc(CN5CCN(c6cc7c(cc6F)c(=O)c(C(=O)O)cn7C6CC6)CC5)cc4)CC3)nc21 | – | 2 | – | <0.03 | 0.125
